Test: recombinant barcode read abundance after kanamycin selection (control-corrected) (log10(CPM+1)); higher = more efficient recombination; sequences stand for … in AGTGCAGAGAAAATCGGCCAGTTTTCTCTGCCTGCAGTCCGCATGCCGT…AGATTTATGCAGCGGACTGCCTTTCTCCCAAAGTGATAAACCGGACAGTATCATGGACCGGTTTTCCCGGTAATCCGTATTTGCAAGGTTGGTTTCACT; site = the 11-nt target
Procedure, shortened: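 A promoter, a target, a barcode and the first 104 bridge RNA bases under J23119 made up each oligo. Oligos were Gibson-cloned into a vector bearing the other 73 bp and a T7-inducible recombinase, then co-electroporated into E. coli with a donor plasmid and plated in duplicate on chloramphenicol/ampicillin LB agar (control) or chloramphenicol/ampicillin/kanamycin with 0.1 mM IPTG. Recombination efficiency is the averaged, control-corrected counts per million of recombinant-junction barcodes. Reported values are log10(CPM+1).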
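Also: IS621 recombinase and bridge RNA in Escherichia coli cells.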

Sequence	recombinant barcode read abundance (log10)
CGCTTGTCTTGGGTTCTAACCTGTTGCCT (site CGCTAGTCTAG)	0.0576
CGCTTGTCTTGGGTTCTAACCTGTTGCCT (site CGCTCGTCTAG)	0.00757
CGCTTGTCTTGGGTTCTAACCTGTTGCCT (site CGCTGGTCTAG)	0.117
CGCTTGTCTTGGGTTCTAACCTGTTGCCT (site CGCTTGTCTAG)	0.15
CGGAAGTCTTGGGTTCTAACCTGTTGCCT (site CGGAAGACTAG)	0.0548
CGGAAGTCTTGGGTTCTAACCTGTTGCCT (site CGGAAGCCTAG)	0.452
CGGAAGTCTTGGGTTCTAACCTGTTGCCT (site CGGAAGGCTAG)	0.247
CGGAAGTCTTGGGTTCTAACCTGTTGCCT (site CGGAAGTCTAG)	1.7
CGGAATCCTTGGGTTCTAACCTGTTGCAT (site CGGAATCCTAA)	0.297
CGGAATCCTTGGGTTCTAACCTGTTGCAT (site CGGAATCCTAC)	0.841
CGGAATCCTTGGGTTCTAACCTGTTGCAT (site CGGAATCCTAG)	0.29
CGGAATCCTTGGGTTCTAACCTGTTGCAT (site CGGAATCCTAT)	1.15
CGGAATCCTTGGGTTCTAACCTGTTGCTT (site CGGAATCCTAA)	0.9
CGGAATCCTTGGGTTCTAACCTGTTGCTT (site CGGAATCCTAC)	0.0576
CGGAATCCTTGGGTTCTAACCTGTTGCTT (site CGGAATCCTAG)	0.316
CGGAATCCTTGGGTTCTAACCTGTTGCTT (site CGGAATCCTAT)	0.707
CGGAGCCCTTGGGTTCTAACCTGTTGCAT (site CGCAGCCCTAT)	0.0297
CGGAGCCCTTGGGTTCTAACCTGTTGCAT (site CGGAGCCCTAT)	1.63
CGGAGCTCTTGGGTTCTAACCTGTTGCCT (site CGAAGCTCTAG)	0.58
CGGAGCTCTTGGGTTCTAACCTGTTGCCT (site CGCAGCTCTAG)	0.293
CGGAGCTCTTGGGTTCTAACCTGTTGCCT (site CGGAGCTCTAG)	1.94
CGGAGCTCTTGGGTTCTAACCTGTTGCCT (site CGTAGCTCTAG)	0.0387

Sequence	recombinant barcode read abundance (log10)
CGGATAGCTTGGGTTCTAACCTGTTGCCT (site CGGATAGCTAG)	0.885
CGGATAGCTTGGGTTCTAACCTGTTGCCT (site CGGATCGCTAG)	0.0282
CGGATAGCTTGGGTTCTAACCTGTTGCCT (site CGGATGGCTAG)	0.153
CGGATAGCTTGGGTTCTAACCTGTTGCCT (site CGGATTGCTAG)	0.553
CGGATGGCTTGGGTTCTAACCTGTTGCCT (site CGGATAGCTAG)	0.031
CGGATGGCTTGGGTTCTAACCTGTTGCCT (site CGGATCGCTAG)	0.0869
CGGATGGCTTGGGTTCTAACCTGTTGCCT (site CGGATGGCTAG)	0.64
CGGATGGCTTGGGTTCTAACCTGTTGCCT (site CGGATTGCTAG)	0.0444
CGGATTGCTTGGGTTCTAACCTGTTGCCT (site CGGATAGCTAG)	0
CGGATTGCTTGGGTTCTAACCTGTTGCCT (site CGGATCGCTAG)	0.0723
CGGATTGCTTGGGTTCTAACCTGTTGCCT (site CGGATGGCTAG)	0.122
CGGATTGCTTGGGTTCTAACCTGTTGCCT (site CGGATTGCTAG)	0.533
CGGCACACTTGGGTTCTAACCTGTTGCGG (site CGGAACACTCC)	0.06
CGGCACACTTGGGTTCTAACCTGTTGCGG (site CGGCACACTCC)	1.86
CGGCACACTTGGGTTCTAACCTGTTGCGG (site CGGGACACTCC)	0.143
CGGCACACTTGGGTTCTAACCTGTTGCGG (site CGGTACACTCC)	0.582
CGGCCACCTTGGGTTCTAACCTGTTGCTT (site AATGGGGCTCT)	0.0969
CGGCCACCTTGGGTTCTAACCTGTTGCTT (site CGGCCACCTAA)	1.02
CGGCCCACTTGGGTTCTAACCTGTTGCGG (site CGGCCCACTCC)	2.35
CGGCCCACTTGGGTTCTAACCTGTTGCGG (site CGGGCCACTAC)	0.033
CGGCCGCCTTGGGTTCTAACCTGTTGCTT (site CGGCCGCCTAA)	0.69
CGGCCGCCTTGGGTTCTAACCTGTTGCTT (site GGGTCGCCTAA)	0.0563

Sequence	recombinant barcode read abundance (log10)
CGGCTCCCTTGGGTTCTAACCTGTTGCTT (site CGGCTCCCTAA)	1.24
CGGCTCCCTTGGGTTCTAACCTGTTGCTT (site GACACAACTTG)	0.147
CGGGCCACTTGGGTTCTAACCTGTTGCCT (site CAGGCCACTAG)	0.198
CGGGCCACTTGGGTTCTAACCTGTTGCCT (site CCGGCCACTAG)	0.0207
CGGGCCACTTGGGTTCTAACCTGTTGCCT (site CGGGCCACTAG)	0.442
CGGGCCACTTGGGTTCTAACCTGTTGCCT (site CTGGCCACTAG)	0.177
CGGGCCTCTTGGGTTCTAACCTGTTGCTG (site CGGGCCTCTAA)	0.504
CGGGCCTCTTGGGTTCTAACCTGTTGCTG (site CGGGCCTCTCA)	2.82
CGGGCCTCTTGGGTTCTAACCTGTTGCTG (site CGGGCCTCTGA)	0.217
CGGGCCTCTTGGGTTCTAACCTGTTGCTG (site CGGGCCTCTTA)	0.872
CGGGCGTCTTGGGTTCTAACCTGTTGCTA (site ATTCGAGCTAT)	0.116
CGGGCGTCTTGGGTTCTAACCTGTTGCTA (site CGGGCGTCTTA)	1.17
CGGGCTACTTGGGTTCTAACCTGTTGCGG (site CGGGCTACTCC)	3.05
CGGGCTACTTGGGTTCTAACCTGTTGCGG (site GGGACTACTCC)	0.0963
CGGGCTACTTGGGTTCTAACCTGTTGCTA (site CGGGCTACTTA)	1.79
CGGGCTACTTGGGTTCTAACCTGTTGCTA (site GGGGCAACTTA)	0.209
CGGGGCCCTTGGGTTCTAACCTGTTGCTT (site CGGGGCCCTAA)	2.6
CGGGGCCCTTGGGTTCTAACCTGTTGCTT (site GACTAGTCTCT)	0.167
CGGGGTCCTTGGGTTCTAACCTGTTGCTA (site CGGAGTCCTTA)	1.68
CGGGGTCCTTGGGTTCTAACCTGTTGCTA (site CGGCGTCCTTA)	0.41
CGGGGTCCTTGGGTTCTAACCTGTTGCTA (site CGGGGTCCTTA)	2.5
CGGGGTCCTTGGGTTCTAACCTGTTGCTA (site CGGTGTCCTTA)	0.35

Sequence	recombinant barcode read abundance (log10)
CGGTCATCTTGGGTTCTAACCTGTTGCCT (site CGATCATCTAG)	0.331
CGGTCATCTTGGGTTCTAACCTGTTGCCT (site CGCTCATCTAG)	0.171
CGGTCATCTTGGGTTCTAACCTGTTGCCT (site CGGTCATCTAG)	0.537
CGGTCATCTTGGGTTCTAACCTGTTGCCT (site CGTTCATCTAG)	0.417
CGTAAACCTTGGGTTCTAACCTGTTGCGT (site CGTAAACCTAC)	0.451
CGTAAACCTTGGGTTCTAACCTGTTGCGT (site CGTCAACCTAC)	0.0732
CGTAAACCTTGGGTTCTAACCTGTTGCGT (site CGTGAACCTAC)	0.159
CGTAAACCTTGGGTTCTAACCTGTTGCGT (site CGTTAACCTAC)	0.393
CGTAAGACTTGGGTTCTAACCTGTTGCCT (site CGTAAGACTAG)	0.489
CGTAAGACTTGGGTTCTAACCTGTTGCCT (site CGTCAGACTAG)	0.265
CGTAAGACTTGGGTTCTAACCTGTTGCCT (site CGTGAGACTAG)	0.0483
CGTAAGACTTGGGTTCTAACCTGTTGCCT (site CGTTAGACTAG)	0.0104
CGTACCGCTTGGGTTCTAACCTGTTGCCT (site CCTACCGCTAA)	0.153
CGTACCGCTTGGGTTCTAACCTGTTGCCT (site CGTACCGCTAG)	0.496
CGTACCTCTTGGGTTCTAACCTGTTGCTC (site CGTACCTCTAA)	0.056
CGTACCTCTTGGGTTCTAACCTGTTGCTC (site CGTACCTCTCA)	0.0772
CGTACCTCTTGGGTTCTAACCTGTTGCTC (site CGTACCTCTGA)	0.171
CGTACCTCTTGGGTTCTAACCTGTTGCTC (site CGTACCTCTTA)	0.0752
CGTACCTCTTGGGTTCTAACCTGTTGCTG (site CGTACCTCTAA)	0.21
CGTACCTCTTGGGTTCTAACCTGTTGCTG (site CGTACCTCTCA)	0.164

Reference: the supplement of paper PMC11208160
